This note sets out measurements from patent publication US20240400546A1, “COMPOUNDS AND USES THEREOF” (JANSSEN PHARMACEUTICA NV, priority 2016, published 2024).

For one assay, the target named is T1, Ole1 (Saccharomyces cerevisiae, UniProt P21147).
T1 construct: expressed in transfected cells; host or cells: S. cerevisiae ole1Δ strain (W303 pdr1Δ pdr3Δ background), plasmid pRS316 with TDH3 promoter and CYC1 terminator
T1 sequence (P21147 1-510): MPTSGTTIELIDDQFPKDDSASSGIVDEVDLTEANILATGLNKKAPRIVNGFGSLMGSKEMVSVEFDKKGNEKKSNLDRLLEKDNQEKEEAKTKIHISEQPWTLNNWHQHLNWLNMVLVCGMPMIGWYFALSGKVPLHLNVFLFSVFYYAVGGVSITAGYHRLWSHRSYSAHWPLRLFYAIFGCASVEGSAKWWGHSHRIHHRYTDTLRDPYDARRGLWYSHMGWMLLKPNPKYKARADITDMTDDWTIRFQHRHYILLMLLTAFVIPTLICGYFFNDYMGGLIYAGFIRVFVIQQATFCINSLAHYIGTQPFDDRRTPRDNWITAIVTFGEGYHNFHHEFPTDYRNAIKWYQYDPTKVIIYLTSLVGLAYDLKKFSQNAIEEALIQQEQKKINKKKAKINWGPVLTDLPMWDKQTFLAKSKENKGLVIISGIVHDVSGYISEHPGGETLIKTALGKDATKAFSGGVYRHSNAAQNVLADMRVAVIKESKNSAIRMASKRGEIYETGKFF
In words: Growth inhibition of yeast expressing Ole1 as sole desaturase. It counts as cell-based. To be noted: yeast expressing Ole1 as sole desaturase. How it is done:
(§1) Strain ole1Δ (yeast ole1 deletion mutant) was constructed by deleting OLE1 with NAT-MX6 in BY4741, amplifying the deletion cassette from the genomic DNA of the resulting strain with primers flanking the ORF by 1000 bp upstream and downstream, transforming the resulting deletion cassette into W303 pdr1Δ pdr3Δ, and plating transformants on YPD media containing G418 (200 μg/mL) and nourseothricin (100 μg/mL) with 0.01% TWEEN®-20 and 0.5 mM oleic and palmitoleic acids.
(§2) The coding sequence of yeast OLE1 was also cloned into this plasmid). These clones were then transformed into the ole1Δ strain and plated on CSM-Ura media (CSM lacking uracil) with 2% glucose (w/v) and independent colonies were isolated and amplified.
(§3) All compound profiling experiments were performed using the same basic protocol. Different genetic backgrounds (e.g., gene deletions) or conditions (e.g., addition of oleic and palmitoleic acid) were replaced as indicated below.
(§4) Yeast were cultured using standard techniques in complete synthetic media (CSM) and yeast nitrogen base supplemented with 2% (w/v) carbon source (glucose, raffinose, or galactose) to regulate the expression of the toxic disease protein. An initial starter culture was inoculated in 3 mL CSM-Glucose media and incubated overnight in a 30° C. shaker incubator (225 rpm). Saturated morning cultures were then diluted 1:20 in fresh CSM-Raffinose media and grown for 6 h to an OD600 (optical density) of ˜0.4-0.8 at 30° C. with shaking.
(§5) Compound administration was performed in two separate steps. First, 15 μL of CSM-Galactose (induces expression of toxic protein) was dispensed into clear 384 well assay plates using a MULTIDROP™ Combi reagent dispenser. […] The cultures described above were then diluted to a 2× concentration (0.03 and 0.08 for alpha-synuclein and ApoE, final OD600 of 0.015 and 0.04) in CSM-Galactose. For wild-type and Ole1/SCD1/SCD5 plasmid-containing strains, the 2× cell density was 0.02. […] For 96-well assays (FIGS. 1A and 1B), compound dilutions in DMSO were generated in 96 well plates and 1 μL was manually pipetted into 96 well clear bottom assay plates.
(§6) For experiments using a plasmid-borne copy of Ole1, SCD1, or SCD5 (FIGS. 3B, 6, and 7), media lacking uracil (SX-Ura, where X is glucose, raffinose, or galactose), was used for all steps of the compound profiling protocol to ensure its maintenance throughout the assay.
(§7) After yeast delivery, assay plates were incubated under humidified conditions at 30° C. for 24 to 40 h. ApoE4 rescue experiments were stopped at 24 h, aSyn experiments at 40 h, Ole1 at 24 h, and SCD1/SCD5 at 40 h. The growth of yeast was monitored by reading the OD600 of each well using a microplate reader (Perkin Elmer EnVision™).
As for `COc1ccc(-c2noc(C3CCN(C(=O)[C@@H]4CC(=O)N(c5ccc(C)c(C)c5)C4)CC3)n2)cc1OC` [Compound 68], the “OLE1 % Max Inhibition” value was found to be 9.74%.

On to `COc1cccc(-c2noc(C3CCN(C(=O)[C@@H]4CC(=O)N(c5ccc(C)c(C)c5)C4)CC3)n2)c1` (single isomer, unassigned) [Compound 69], for which the “OLE1 % Max Inhibition” value is given as 105.31%.

For `CCN1C(=O)CN(C)c2ccc(-c3noc(C4CCN(C(=O)CNC(=O)c5ccccc5)CC4)n3)cc21` [Compound 298], the “OLE1 % Max Inhibition” value is recorded as 6.6%.

Another assay has as its target T2, SCD1 (Homo sapiens, UniProt O00767).
T2 construct: host or cells: S. cerevisiae ole1Δ strain, plasmid pRS316 with TDH3 promoter and CYC1 terminator
T2 sequence (O00767 1-359): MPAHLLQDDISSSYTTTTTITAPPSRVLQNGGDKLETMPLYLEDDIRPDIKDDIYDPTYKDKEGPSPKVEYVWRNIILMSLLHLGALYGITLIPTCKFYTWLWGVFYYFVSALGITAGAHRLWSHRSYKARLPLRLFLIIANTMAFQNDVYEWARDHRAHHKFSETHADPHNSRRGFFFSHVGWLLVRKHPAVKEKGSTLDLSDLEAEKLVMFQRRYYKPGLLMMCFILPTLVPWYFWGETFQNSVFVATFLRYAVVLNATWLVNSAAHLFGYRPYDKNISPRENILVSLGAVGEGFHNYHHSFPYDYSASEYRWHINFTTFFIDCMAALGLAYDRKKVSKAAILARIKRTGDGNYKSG
In words: Growth inhibition of humanized yeast expressing SCD1 as sole desaturase. To be noted: growth of humanized yeast strain expressing human SCD1. It counts as cell-based. In a few lines:
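ole1Δ yeast (W303 pdr1Δ pdr3Δ background) carried plasmid-borne human SCD1, human SCD5 or yeast Ole1 as the sole desaturase and were grown in uracil-lacking galactose medium in 384-well plates. Starting 2× density was OD600 0.02, with incubation at 30 °C. Growth was read as OD600 at 24 h for Ole1 and at 40 h for SCD1 and SCD5.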
By IC50 is commonly meant the concentration that gives 50% inhibition. Regarding `Cc1cc(N2CCN(c3nc(-c4ccc5cnn(C(C)C)c5c4)no3)CC2)on1` [Compound 657], the IC50 was > 45 µM.

The assay is the same for the next values; noted with them: humanized yeast expressing SCD1.
As to `COc1ccc(-c2noc(C3CCN(C(=O)[C@@H]4CC(=O)N(c5ccc(C)c(C)c5)C4)CC3)n2)cc1OC` [Compound 68], the IC50 is > 45 µM and the “SCD1 % Max Inhibition” value worked out at 22.28%.

Consider `COc1cccc(-c2noc(C3CCN(C(=O)[C@@H]4CC(=O)N(c5ccc(C)c(C)c5)C4)CC3)n2)c1` (single isomer, unassigned) [Compound 69], for which the “SCD1 % Max Inhibition” value worked out at 60.59%.

Still in this assay, the particulars now being: humanized yeast expressing human SCD1.
As to `CC(C)n1ncc2ccc(-c3noc(C4CCNCC4)n3)cc21` [Compound 500], the IC50 was > 45 µM.

Regarding `CC(C)n1ncc2ccc(N3CC4(CCN(C(=O)OC(C)(C)C)CC4)C3)cc21` [Compound 511], the IC50 was > 45 µM.

Consider `Cc1noc(N2CCC(c3nc(-c4ccc5c(C)nn(C)c5c4)no3)CC2)n1` [Compound 543], for which the IC50 is > 45 µM.

On to `Cc1nn(C)c2cc(-c3noc(C4CCN(C(=O)CNC(=O)c5ccc(Cl)cc5)CC4(F)F)n3)ccc12` (stereo not drawn) [Compound 553], for which the IC50 worked out at 5.71 µM.

For the compound `CCN1C(=O)CN(C)c2ccc(-c3noc(C4CCN(C(=O)CNC(=O)c5ccccc5)CC4)n3)cc21` [Compound 298], the IC50 is > 45 µM and the “SCD1 % Max Inhibition” value is reported as 92.3%.

Staying with this assay, now noted: humanized yeast strain, 40 h.
Compound `CC(=O)N1CC(n2cc3ccc(-c4nc(C5CCN(C(=O)OC(C)(C)C)CC5)no4)cc3n2)C1` [Compound 862] showed an IC50 of 33.8 µM.

In turn, `CC(C)(C)OC(=O)N1CCN(c2noc(-c3ccc4cnn(C5COC5)c4c3)n2)CC1` [Compound 750] displayed an IC50 of 3.25 µM.

The target of a further assay is T3, SCD5 (Homo sapiens, UniProt Q86SK9).
T3 construct: host or cells: S. cerevisiae ole1Δ strain, plasmid pRS316 with TDH3 promoter and CYC1 terminator
T3 sequence (Q86SK9 1-330): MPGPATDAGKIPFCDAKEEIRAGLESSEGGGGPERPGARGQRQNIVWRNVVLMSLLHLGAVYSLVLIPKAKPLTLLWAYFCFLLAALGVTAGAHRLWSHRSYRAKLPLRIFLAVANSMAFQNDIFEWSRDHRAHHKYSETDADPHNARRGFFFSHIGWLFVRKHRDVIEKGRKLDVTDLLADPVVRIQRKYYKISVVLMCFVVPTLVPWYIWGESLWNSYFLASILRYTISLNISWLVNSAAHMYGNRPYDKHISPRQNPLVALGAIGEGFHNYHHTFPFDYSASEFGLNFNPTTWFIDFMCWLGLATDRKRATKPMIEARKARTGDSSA
In words: Growth inhibition of humanized yeast expressing SCD5 as sole desaturase. To be noted: growth of humanized yeast strain expressing human SCD5. Format: cell-based. How it is done:
as §1, §2, §3, §4, §5, §6, §7
For `Cc1cc(N2CCN(c3nc(-c4ccc5cnn(C(C)C)c5c4)no3)CC2)on1` [Compound 657], it took 9.11 µM to reach half-maximal inhibition (IC50).

The same assay, now with this note: humanized yeast expressing SCD5.
`COc1ccc(-c2noc(C3CCN(C(=O)[C@@H]4CC(=O)N(c5ccc(C)c(C)c5)C4)CC3)n2)cc1OC` [Compound 68]: the IC50 is > 45 µM and the “SCD5 % Max Inhibition” value was 3.75%.

Regarding `COc1cccc(-c2noc(C3CCN(C(=O)[C@@H]4CC(=O)N(c5ccc(C)c(C)c5)C4)CC3)n2)c1` (single isomer, unassigned) [Compound 69], the “SCD5 % Max Inhibition” value came to 8.06%.

The same assay, now with this note: humanized yeast expressing human SCD5.
As to `CC(C)n1ncc2ccc(-c3noc(C4CCNCC4)n3)cc21` [Compound 500], the IC50 was > 45 µM.

In turn, `CC(C)n1ncc2ccc(N3CC4(CCN(C(=O)OC(C)(C)C)CC4)C3)cc21` [Compound 511] came in with an IC50 of 3.39 µM.

`Cc1noc(N2CCC(c3nc(-c4ccc5c(C)nn(C)c5c4)no3)CC2)n1` [Compound 543]: the IC50 was ≥ 45 µM.

As to `Cc1nn(C)c2cc(-c3noc(C4CCN(C(=O)CNC(=O)c5ccc(Cl)cc5)CC4(F)F)n3)ccc12` (stereo not drawn) [Compound 553], the 50% inhibitory concentration (IC50) came to 0.885 µM.

Regarding `CCN1C(=O)CN(C)c2ccc(-c3noc(C4CCN(C(=O)CNC(=O)c5ccccc5)CC4)n3)cc21` [Compound 298], the IC50 is > 45 µM and the “SCD5 % Max Inhibition” value is recorded as 21.3%.

The same assay, now with this note: humanized yeast strain, 40 h.
Regarding `CC(=O)N1CC(n2cc3ccc(-c4nc(C5CCN(C(=O)OC(C)(C)C)CC5)no4)cc3n2)C1` [Compound 862], the IC50 was determined as 0.01 µM.

The compound `CC(C)(C)OC(=O)N1CCN(c2noc(-c3ccc4cnn(C5COC5)c4c3)n2)CC1` [Compound 750] yielded an IC50 of 0.01 µM.
